Measured values from ChEMBL document CHEMBL1201862, “PubChem BioAssay data set” (2004).
The source made the active and inactive calls.

Tests used:
[1] = viability of uninfected HEp-2 cells – cell-based, HTS, cytotoxicity control for RSV inhibitor project, dose response (AID 2410); type: functional; settings: human respiratory syncytial virus
[2] = target: Photoreceptor-specific nuclear receptor (Homo sapiens, UniProt Q9Y5X4); type: functional;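 also: potency for compounds that break the NR2E3 corepressor complex and count as activators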
Sequence of Photoreceptor-specific nuclear receptor (Q9Y5X4 whole entry): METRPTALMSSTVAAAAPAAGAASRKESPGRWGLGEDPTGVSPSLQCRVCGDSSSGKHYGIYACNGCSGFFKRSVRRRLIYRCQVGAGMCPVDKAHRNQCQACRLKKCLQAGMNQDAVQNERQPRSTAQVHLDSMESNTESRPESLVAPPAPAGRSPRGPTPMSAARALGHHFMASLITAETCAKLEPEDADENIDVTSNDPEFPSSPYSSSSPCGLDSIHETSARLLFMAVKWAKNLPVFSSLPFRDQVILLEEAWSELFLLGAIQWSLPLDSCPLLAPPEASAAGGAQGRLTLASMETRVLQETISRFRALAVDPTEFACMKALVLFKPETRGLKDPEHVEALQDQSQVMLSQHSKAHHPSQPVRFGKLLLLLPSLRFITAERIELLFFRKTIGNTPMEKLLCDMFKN

[3] = target: G-protein coupled receptor 55 (Homo sapiens, UniProt Q9Y2T6); experiment: inhibition of LPI-stimulated GPR55 beta-arrestin translocation – imaging, U2OS, beta-arrestin-GFP, LPI agonist, primary screen (AID 2013); type: functional;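 also: antagonist potency measured as reduced agonist-driven arrestin aggregation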
[4] = target: Peroxisome proliferator-activated receptor gamma/Nuclear receptor corepressor 2 (Homo sapiens, UniProt P37231+Q9Y618); type: functional
[5] = target: T1, Intestinal-type alkaline phosphatase (Homo sapiens, UniProt P09923); experiment: activation of human intestinal alkaline phosphatase – biochemical, dose response (AID 488873); type: functional
T1 sequence (P09923 whole entry): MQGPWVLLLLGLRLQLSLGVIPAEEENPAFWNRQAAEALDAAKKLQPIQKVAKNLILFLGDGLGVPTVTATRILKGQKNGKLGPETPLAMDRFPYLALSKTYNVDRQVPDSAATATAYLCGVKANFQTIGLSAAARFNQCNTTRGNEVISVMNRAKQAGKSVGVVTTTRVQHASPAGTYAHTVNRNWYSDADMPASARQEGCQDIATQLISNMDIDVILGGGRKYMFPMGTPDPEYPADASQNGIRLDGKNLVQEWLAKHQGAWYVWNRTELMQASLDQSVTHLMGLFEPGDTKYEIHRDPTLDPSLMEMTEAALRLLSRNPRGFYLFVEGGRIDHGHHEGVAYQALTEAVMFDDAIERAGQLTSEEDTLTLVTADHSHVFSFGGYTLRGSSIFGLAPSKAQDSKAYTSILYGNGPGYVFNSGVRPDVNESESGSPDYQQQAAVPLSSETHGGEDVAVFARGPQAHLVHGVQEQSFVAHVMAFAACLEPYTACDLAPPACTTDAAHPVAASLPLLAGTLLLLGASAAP

[6] = target: Alkaline phosphatase, placental type (Homo sapiens, UniProt P05187); experiment: human placental alkaline phosphatase inhibition – biochemical, luminescence, confirmation (AID 1512); type: functional
Sequence of Alkaline phosphatase, placental type (P05187 whole entry): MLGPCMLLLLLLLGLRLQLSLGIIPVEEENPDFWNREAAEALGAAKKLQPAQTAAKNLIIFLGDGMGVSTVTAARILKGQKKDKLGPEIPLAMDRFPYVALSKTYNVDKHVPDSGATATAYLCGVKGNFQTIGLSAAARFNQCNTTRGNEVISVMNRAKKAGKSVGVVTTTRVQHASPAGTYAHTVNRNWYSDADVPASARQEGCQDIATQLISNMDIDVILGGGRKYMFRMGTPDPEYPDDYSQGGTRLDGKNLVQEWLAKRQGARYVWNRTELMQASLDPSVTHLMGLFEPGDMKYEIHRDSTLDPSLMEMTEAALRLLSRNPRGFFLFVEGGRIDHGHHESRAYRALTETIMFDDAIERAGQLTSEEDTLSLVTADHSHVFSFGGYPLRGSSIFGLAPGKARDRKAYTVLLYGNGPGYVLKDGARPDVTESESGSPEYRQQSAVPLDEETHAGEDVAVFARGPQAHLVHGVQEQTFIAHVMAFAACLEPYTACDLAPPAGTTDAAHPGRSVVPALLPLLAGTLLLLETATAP

[7] = target: T2, Alkaline phosphatase, tissue-nonspecific isozyme (Homo sapiens, UniProt P05186); experiment: potency against alkaline phosphatase TNAP – biochemical, luminescent, dose response, SAR follow-up (AID 1056)
T2 sequence (P05186 whole entry): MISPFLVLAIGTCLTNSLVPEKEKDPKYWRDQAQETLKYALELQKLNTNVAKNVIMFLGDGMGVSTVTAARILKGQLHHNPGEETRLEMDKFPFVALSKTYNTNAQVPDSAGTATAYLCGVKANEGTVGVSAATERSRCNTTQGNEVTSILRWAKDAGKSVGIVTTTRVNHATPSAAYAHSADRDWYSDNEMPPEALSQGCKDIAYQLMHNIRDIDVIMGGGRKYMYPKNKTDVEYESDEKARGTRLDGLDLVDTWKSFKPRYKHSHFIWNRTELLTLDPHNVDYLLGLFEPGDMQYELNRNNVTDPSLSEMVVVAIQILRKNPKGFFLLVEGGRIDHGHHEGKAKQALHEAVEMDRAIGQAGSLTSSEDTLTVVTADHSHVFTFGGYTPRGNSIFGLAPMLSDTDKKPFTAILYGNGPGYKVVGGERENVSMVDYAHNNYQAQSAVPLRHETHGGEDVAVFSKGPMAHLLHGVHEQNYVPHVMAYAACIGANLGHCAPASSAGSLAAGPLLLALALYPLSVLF

[8] = target: T3, Intestinal-type alkaline phosphatase (Mus musculus, UniProt P24822); experiment: mouse intestinal alkaline phosphatase activators, dose response, biochemical, luminescence, uHTS hits (AID 488783); type: functional
T3 sequence (P24822 whole entry): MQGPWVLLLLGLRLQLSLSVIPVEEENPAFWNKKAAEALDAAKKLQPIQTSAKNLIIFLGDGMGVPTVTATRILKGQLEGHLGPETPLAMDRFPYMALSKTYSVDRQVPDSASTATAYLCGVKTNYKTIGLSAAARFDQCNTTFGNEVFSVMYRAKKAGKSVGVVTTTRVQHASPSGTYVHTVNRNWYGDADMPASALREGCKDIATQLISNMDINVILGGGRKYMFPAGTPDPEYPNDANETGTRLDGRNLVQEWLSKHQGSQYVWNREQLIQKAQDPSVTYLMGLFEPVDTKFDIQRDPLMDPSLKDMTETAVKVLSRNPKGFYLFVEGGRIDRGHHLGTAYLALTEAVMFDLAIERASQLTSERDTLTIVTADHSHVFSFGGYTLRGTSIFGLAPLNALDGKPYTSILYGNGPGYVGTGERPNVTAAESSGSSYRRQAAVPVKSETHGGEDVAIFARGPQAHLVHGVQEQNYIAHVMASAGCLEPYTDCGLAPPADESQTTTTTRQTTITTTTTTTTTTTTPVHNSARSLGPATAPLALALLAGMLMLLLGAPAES

[9] = target: T2, Alkaline phosphatase, tissue-nonspecific isozyme; experiment: activation of tissue-nonspecific alkaline phosphatase – biochemical, TNAP isozyme, mouse IAP uHTS hits, selectivity assay for mouse IAP activator project, dose response (AID 488880); type: functional
[10] = target: T4, Rac GTPase-activating protein 1 (Homo sapiens, UniProt Q9H0H5); experiment: blockers of MgcRacGAP-driven Rac1 GTP hydrolysis – biochemical, ADP Hunter fluorescence, primary and confirmatory, confirmation (AID 624330); type: functional
T4 sequence (Q9H0H5 whole entry): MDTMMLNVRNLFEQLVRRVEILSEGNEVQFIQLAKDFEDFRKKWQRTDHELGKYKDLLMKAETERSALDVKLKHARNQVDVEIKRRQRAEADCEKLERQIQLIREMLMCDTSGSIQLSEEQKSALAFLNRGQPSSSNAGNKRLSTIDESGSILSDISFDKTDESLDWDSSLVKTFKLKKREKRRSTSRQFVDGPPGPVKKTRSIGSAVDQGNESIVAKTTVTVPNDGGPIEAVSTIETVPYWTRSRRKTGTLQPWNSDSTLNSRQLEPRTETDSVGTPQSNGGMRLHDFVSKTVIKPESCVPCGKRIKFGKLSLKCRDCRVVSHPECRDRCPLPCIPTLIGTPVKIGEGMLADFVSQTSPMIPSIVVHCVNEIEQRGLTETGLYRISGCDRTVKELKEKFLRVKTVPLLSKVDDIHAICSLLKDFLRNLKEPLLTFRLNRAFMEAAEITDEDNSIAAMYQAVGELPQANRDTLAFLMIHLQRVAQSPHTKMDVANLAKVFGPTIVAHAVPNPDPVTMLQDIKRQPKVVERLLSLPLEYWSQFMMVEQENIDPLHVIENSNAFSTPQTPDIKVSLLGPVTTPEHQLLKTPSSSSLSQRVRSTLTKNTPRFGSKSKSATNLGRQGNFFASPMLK

[11] = target: Induced myeloid leukemia cell differentiation protein Mcl-1 (Homo sapiens, UniProt Q07820); type: functional
Sequence of Induced myeloid leukemia cell differentiation protein Mcl-1 (Q07820 whole entry): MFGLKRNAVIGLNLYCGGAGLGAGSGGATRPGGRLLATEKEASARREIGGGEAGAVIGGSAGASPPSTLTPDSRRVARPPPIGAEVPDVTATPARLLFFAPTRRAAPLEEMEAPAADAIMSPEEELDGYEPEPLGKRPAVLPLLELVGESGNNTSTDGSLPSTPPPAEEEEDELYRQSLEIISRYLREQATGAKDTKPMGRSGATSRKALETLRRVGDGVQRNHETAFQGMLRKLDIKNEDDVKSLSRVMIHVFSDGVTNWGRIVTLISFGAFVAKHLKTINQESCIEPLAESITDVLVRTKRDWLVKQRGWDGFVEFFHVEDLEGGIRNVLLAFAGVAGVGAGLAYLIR

ORF 73 = target: T5, ORF 73 (Human herpesvirus 8, UniProt O40947); experiment: KSHV LANA DNA-binding disruption – biochemical, fluorescence polarization, cherry-picked samples, dose response (AID 504725); design: species or system Human gammaherpesvirus 8;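 also: fluorescence polarization of a labeled DNA duplex reporting LANA DNA binding; potency is for inhibitors that block LANA binding to the DNA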
T5 sequence (O40947 whole entry): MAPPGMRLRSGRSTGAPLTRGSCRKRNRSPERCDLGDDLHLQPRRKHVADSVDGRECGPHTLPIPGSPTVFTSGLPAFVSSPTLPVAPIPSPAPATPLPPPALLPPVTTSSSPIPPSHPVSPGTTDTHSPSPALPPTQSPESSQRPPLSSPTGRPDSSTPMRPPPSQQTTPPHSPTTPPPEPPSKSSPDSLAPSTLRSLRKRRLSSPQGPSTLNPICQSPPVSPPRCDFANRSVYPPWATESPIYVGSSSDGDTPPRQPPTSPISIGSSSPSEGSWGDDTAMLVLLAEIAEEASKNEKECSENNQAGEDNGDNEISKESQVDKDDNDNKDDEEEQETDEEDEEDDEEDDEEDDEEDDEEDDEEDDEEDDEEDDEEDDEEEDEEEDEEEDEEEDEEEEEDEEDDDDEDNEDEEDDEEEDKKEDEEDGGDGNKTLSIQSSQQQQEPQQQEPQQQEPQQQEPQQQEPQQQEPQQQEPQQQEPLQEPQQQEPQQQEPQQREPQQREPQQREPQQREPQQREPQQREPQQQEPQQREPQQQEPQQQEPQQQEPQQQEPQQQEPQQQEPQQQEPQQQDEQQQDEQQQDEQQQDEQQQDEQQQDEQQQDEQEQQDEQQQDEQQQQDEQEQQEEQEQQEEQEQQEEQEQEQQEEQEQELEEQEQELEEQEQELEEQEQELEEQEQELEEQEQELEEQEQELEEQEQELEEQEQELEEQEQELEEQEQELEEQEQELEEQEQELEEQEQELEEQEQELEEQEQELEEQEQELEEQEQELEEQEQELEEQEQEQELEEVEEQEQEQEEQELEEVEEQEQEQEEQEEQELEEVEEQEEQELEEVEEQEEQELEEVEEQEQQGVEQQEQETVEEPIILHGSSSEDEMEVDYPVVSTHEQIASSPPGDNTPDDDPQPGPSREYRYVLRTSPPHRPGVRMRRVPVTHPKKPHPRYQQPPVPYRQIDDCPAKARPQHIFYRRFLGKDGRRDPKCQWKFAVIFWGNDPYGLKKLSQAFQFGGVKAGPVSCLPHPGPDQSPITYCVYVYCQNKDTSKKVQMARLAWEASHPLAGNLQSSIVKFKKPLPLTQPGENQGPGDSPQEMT

Troponin, cardiac muscle = Troponin, cardiac muscle (Homo sapiens, UniProt P19429+P45379+P63316); experiment: compounds desensitizing RTF to calcium – biochemical, fluorescence, cardiac regulated thin filaments, triplicate IC50, dose response (AID 504742); type: protein-complex assay
[12] = target: T6, Endoribonuclease toxin MazF (Escherichia coli K-12, UniProt P0AE70); experiment: activation of MazEF endoribonuclease cleavage – biochemical, fluorescence, single-stranded RNA substrate, uHTS hits, dose response (AID 588481); type: functional
T6 sequence (P0AE70 whole entry): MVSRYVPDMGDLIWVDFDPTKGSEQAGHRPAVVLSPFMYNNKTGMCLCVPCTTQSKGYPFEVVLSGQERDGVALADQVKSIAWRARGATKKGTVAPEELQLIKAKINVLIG

[13] = target: T6, Endoribonuclease toxin MazF; experiment: substrate-only fluorescence increase artefacts – biochemical, single-stranded RNase substrate, counter-screen for MazEF activator project, dose response (AID 588502); type: functional
Genome polyprotein = Genome polyprotein (dengue virus type 2, UniProt P29990); experiment: flavivirus cap methylation enzyme inhibition – biochemical, confirmation dose response, primary screen (AID 588689); type: functional
[14] = target: T7, Long-chain-fatty-acid--AMP ligase FadD28 (Mycobacterium tuberculosis, UniProt P9WQ59); experiment: Fluorescence polarization aasay to screen for inhibitors that compete for the binding of FadD28 to a bisubstrate Measured in Biochemical System Using Plate Reader - 2147-01_Inhibitor_Dose_CherryPick_Activity.; type: functional, Mycobacterium tuberculosis H37Rv
T7 sequence (P9WQ59 whole entry): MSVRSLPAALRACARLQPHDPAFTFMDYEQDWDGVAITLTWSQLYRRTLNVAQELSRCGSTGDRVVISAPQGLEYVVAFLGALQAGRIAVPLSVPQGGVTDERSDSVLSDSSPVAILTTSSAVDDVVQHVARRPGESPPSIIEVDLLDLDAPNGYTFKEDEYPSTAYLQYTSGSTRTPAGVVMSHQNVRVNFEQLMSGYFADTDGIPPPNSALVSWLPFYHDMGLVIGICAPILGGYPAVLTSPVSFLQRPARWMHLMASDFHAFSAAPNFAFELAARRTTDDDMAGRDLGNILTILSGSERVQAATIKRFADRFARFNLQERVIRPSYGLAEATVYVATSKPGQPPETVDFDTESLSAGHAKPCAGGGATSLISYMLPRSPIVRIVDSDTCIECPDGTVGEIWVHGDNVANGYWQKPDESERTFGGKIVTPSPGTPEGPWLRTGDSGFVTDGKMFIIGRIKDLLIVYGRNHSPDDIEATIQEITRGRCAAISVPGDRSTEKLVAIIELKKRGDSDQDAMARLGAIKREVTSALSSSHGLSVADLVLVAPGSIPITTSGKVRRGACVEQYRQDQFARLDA

Caspase-6 = target: T8, Caspase-6 (Homo sapiens, UniProt P55212); experiment: inhibition of CASP6 peptide cleavage – biochemical, VEID-R110 fluorescence, cherry-pick, dose response (AID 720632)
T8 sequence (P55212 whole entry): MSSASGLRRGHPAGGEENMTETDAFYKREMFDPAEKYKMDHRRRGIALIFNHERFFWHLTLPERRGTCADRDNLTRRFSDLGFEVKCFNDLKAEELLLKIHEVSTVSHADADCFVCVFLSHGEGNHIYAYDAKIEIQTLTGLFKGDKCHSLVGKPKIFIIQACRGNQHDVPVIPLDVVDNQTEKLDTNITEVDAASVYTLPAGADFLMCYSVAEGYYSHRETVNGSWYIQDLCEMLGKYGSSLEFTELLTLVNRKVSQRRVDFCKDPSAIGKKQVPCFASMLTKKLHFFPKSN

Caspase-7 = Caspase-7 (Homo sapiens, UniProt P55210); experiment: caspase-7 enzyme inhibition, selectivity check – biochemical, DEVD-R110 fluorescence, cherry-pick, selectivity assay for caspase-6 inhibitor project, dose response (AID 743295); type: functional
[15] = target: 1-phosphatidylinositol 4,5-bisphosphate phosphodiesterase gamma-1 (Homo sapiens, UniProt P19174); experiment: Counterscreen for inhibitors of phospholipase C isozymes (PLC-B3): Fluorescence-based biochemical high throughput dose response assay to identify inhibitors of phospholipase C isozymes (PLC-gamma1).
Sequence of 1-phosphatidylinositol 4,5-bisphosphate phosphodiesterase gamma-1 (P19174 whole entry): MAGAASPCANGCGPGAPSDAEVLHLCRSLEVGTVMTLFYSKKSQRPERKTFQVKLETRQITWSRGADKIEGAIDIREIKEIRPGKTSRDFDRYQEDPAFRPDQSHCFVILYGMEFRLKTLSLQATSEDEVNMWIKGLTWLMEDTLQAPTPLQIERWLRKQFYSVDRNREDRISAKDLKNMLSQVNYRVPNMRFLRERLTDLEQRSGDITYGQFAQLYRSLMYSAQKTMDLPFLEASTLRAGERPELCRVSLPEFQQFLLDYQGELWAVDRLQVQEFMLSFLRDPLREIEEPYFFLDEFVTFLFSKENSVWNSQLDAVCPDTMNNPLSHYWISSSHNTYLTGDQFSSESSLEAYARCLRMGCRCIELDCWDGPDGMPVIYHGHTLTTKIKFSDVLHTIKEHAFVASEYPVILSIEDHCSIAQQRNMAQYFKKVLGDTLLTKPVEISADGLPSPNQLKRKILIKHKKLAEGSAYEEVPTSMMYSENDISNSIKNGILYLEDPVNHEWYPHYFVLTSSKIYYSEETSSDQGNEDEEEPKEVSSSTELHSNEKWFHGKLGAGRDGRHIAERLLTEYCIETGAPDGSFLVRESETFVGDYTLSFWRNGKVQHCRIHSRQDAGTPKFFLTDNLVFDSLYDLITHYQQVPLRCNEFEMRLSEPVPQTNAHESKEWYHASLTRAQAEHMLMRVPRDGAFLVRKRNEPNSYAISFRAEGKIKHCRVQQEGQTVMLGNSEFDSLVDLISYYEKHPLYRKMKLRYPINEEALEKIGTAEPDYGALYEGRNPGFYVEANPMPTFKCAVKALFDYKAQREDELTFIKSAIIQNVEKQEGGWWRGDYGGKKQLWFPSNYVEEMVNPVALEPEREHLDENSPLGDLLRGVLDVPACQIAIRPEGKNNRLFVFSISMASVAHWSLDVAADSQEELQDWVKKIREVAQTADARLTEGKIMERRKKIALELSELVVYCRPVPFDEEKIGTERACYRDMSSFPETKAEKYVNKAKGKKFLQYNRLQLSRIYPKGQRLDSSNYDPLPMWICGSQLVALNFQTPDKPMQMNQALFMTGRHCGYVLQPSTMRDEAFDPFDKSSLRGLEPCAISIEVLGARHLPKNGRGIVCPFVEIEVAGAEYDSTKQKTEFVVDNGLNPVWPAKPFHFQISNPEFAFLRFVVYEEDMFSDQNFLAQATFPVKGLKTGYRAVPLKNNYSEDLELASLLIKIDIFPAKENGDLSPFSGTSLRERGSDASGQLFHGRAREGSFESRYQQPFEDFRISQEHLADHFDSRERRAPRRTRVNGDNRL

[16] = target: 1-phosphatidylinositol 4,5-bisphosphate phosphodiesterase beta-3 (Homo sapiens, UniProt Q01970); experiment: Fluorescence-based biochemical high throughput dose response assay to identify inhibitors of phospholipase C isozymes (PLC-B3).
Sequence of 1-phosphatidylinositol 4,5-bisphosphate phosphodiesterase beta-3 (Q01970 whole entry): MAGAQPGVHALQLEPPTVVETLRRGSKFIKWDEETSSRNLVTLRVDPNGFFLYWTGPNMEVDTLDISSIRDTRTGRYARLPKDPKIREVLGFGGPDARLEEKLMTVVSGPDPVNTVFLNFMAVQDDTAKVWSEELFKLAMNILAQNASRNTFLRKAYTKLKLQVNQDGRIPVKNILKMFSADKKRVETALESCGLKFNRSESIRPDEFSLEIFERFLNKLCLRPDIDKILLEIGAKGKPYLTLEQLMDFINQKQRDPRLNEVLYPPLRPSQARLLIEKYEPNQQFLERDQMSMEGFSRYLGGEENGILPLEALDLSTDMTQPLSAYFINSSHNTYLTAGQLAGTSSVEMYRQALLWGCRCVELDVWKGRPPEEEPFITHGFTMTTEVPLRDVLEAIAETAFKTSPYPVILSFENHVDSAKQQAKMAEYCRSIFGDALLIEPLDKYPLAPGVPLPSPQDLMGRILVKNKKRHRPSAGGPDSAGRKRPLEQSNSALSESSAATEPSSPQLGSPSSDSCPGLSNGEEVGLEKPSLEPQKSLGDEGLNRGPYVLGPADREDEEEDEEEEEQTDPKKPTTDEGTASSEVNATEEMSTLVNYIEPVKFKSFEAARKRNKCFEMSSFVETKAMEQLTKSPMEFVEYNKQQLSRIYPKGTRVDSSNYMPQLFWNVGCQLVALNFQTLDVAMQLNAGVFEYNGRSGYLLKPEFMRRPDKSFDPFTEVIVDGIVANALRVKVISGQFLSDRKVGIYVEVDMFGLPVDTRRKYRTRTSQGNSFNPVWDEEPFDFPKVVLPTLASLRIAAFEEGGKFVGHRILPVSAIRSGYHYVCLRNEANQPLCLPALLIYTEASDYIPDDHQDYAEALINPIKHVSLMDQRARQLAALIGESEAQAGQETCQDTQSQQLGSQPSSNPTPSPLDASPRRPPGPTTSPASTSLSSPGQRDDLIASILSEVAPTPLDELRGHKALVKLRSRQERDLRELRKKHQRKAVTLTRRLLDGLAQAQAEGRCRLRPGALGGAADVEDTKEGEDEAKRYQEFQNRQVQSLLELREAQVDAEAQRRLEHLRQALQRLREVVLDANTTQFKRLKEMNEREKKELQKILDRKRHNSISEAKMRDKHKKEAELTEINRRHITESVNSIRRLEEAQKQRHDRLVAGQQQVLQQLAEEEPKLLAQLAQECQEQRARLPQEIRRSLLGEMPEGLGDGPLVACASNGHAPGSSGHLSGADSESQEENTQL

[17] = target: T3, Intestinal-type alkaline phosphatase; experiment: PubChem AID 488875; type: functional
[18] = target: T1, Intestinal-type alkaline phosphatase; experiment: human intestinal alkaline phosphatase activators, dose response, biochemical, luminescence, uHTS hits (AID 463120); type: functional
[19] = target: T1, Intestinal-type alkaline phosphatase; experiment: activation of human intestinal alkaline phosphatase – biochemical, luminescent, uHTS hits, set 2, dose response (AID 488817); type: functional;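 also: potency of activators that raise enzyme activity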
[20] = target: T2, Alkaline phosphatase, tissue-nonspecific isozyme; experiment: activation of tissue-nonspecific alkaline phosphatase – biochemical, TNAP isozyme, human IAP uHTS hits, selectivity assay for human IAP activator project, dose response (AID 488886); type: functional;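 also: potency of compounds raising TNAP activity as a selectivity check on IAP activators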
[21] = target: T9, Type-1 angiotensin II receptor (Homo sapiens, UniProt P30556); experiment: agonist activity at AGTR1 – cell-based, uHTS hits, selectivity assay for APJ receptor agonist project, dose response (AID 488865); type: functional;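 also: beta-arrestin recruitment to AT1 measured by enzyme fragment complementation luminescence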
T9 sequence (P30556 whole entry): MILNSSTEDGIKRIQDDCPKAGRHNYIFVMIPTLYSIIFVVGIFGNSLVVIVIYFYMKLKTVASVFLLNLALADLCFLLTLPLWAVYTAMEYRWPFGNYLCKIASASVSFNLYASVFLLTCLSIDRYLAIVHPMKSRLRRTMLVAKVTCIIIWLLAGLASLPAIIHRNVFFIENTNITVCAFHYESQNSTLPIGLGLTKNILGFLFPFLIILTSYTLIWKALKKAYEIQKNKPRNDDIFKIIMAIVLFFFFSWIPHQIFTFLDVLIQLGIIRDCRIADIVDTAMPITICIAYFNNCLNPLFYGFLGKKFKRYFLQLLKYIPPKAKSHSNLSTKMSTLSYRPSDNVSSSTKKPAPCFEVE

COC(=O)c1cc2c(-c3ccccc3)c(C)c3ccccn3c-2c1C(=O)OC
active: CC50 [1] 27 µM | IC50 [2] > 1.48 µM | IC50 [3] 2.58 µM | IC50 [4] 1.31 µM | IC50 (cells) 23.4 µM

C=CCn1c(SCC(=O)c2ccc(O)c(O)c2)nnc1-c1cccc(OC)c1
inactive: EC50 [5] > 100 µM | EC50 [8] 100 µM
active: IC50 [6] 5.55 µM | IC50 [7] 17.4 µM | EC50 [9] 68 µM | IC50 [10] 77.7 µM

O=c1oc2c(cc1O)oc(=O)c1cc(O)c(O)c(O)c12
inactive: EC50 [12] 80.5 µM | EC50 [13] > 99 µM | IC50 [15] > 123 µM | IC50 [16] > 123 µM
active: IC50 [11] > 54 µM | AC50 (ORF 73) 18.9 µM | IC50 (Troponin, cardiac muscle) 3.19 µM | IC50 (Genome polyprotein) > 100 µM | AC50 [14] 98.7 µM | AC50 (Caspase-6) 0.484 µM | AC50 (Caspase-7) 2.35 µM

COc1ccc(OC)c(NC(=O)c2cc(-c3cc(C)ccc3O)n[nH]2)c1
inactive: EC50 [17] > 100 µM
active: EC50 [18] 15.1 µM | EC50 [19] 20.8 µM | EC50 [20] 18.5 µM

COC/C=C/C1=CC2=CC(=O)C(C)(OC(=O)c3cnc4ccccc4n3)C(=O)C2=CN1c1ccccc1 (configuration not stated)
inactive: EC50 [21] > 100 µM
